Laboratory results as given in patent publication US20060177430A1, “Treatment of ocular disorders with ophthalmic formulations containing methylsulfonylmethane as a transport enhancer” (Chakshu Research Inc, priority 2002, published 2006).
In brackets after ≈: the same amount, converted by molar mass. Read-outs that look alike come from different tables or passages of the source. Each block holds one compound with its values, some of them ahead of it.

Key:
[1] = Intestinal membrane permeation, MSM as enhancer, dexamethasone as active (Example 15); assay type: in vitro ADME
Text: The same study design and experimental setup was used as described in the above experiments.

[2] = Dexamethasone solubility experiment with increasing MSM concentration (Example 16); assay type: physicochemical
[3] = 30-minute time point; 8 μl eye drop on rat cornea; MSM versus PBS
[4] = Intestinal membrane permeation, MSM as enhancer, methylene blue as active (Example 8); assay type: in vitro ADME, porcine
Text: In this experiment we selected methylene blue as the species for which permeation enhancement was desired. As tissue model for this experiment we selected porcine intestinal membrane. A small glass vial was filled with test solution and capped with the test membrane (tissue layer of defined thickness). The membrane tissue was hold in place with a rubber O-ring and a screw cap of defined surface area opening. This test unit was immersed into a large glass vial filled with receptor medium. From this large glass vial, small sample receptor medium volumes were periodically removed for analysis.

[5] = Bovine cornea penetration, MSM as enhancer, methylene blue as active (Example 9); assay type: in vitro ADME
Text: In this example the same principal study design and protocol was used as described in Example 8. In this experiment, we selected methylene blue again as the species for which permeation enhancement was desired; however, as tissue model we selected bovine cornea. The bovine cornea was dissected from bovine eyes procured from slaughterhouses. We selected bovine cornea tissue as the test membrane because it is known to be a very difficult membrane to penetrate. Bovine cornea is about 4-6 times thicker than the human corneal membrane.

[6] = Methylene blue permeation through MSM pre-treated porcine intestinal membrane (Example 17); assay type: in vitro ADME
Protocol: This experiment was designed to investigate if there is a long-lasting enhancement effect of MSM, i.e., if there is a long-lasting disruption of membrane permeability after the formula was removed or washed-out after application.
Methylene blue was the active. The tissue model was porcine intestinal membrane, which was pre-treated. In this experiment all membranes were soaked for 24 hours in a MSM containing pre-treatment solution. […] After the 24-hour soaking period, “Test A” membrane was thoroughly washed, while “Test B” membrane was only briefly rinsed. Those membrane specimens were then mounted as described earlier on methylene blue containing glass vials, which were then immersed as described earlier into a larger glass vial containing receptor medium containing. Only the MSM-enhanced donor solution contained, besides methylene blue, also MSM for enhancement purposes. • Control: No MSM in 24-hour pre-treatment, no MSM enhancer in donor • Test A: 24-hour MSM pretreatment w/thorough washing, no MSM enhancer • Test B: 24-hour MSM pretreatment w/brief rinsing, no MSM enhancer • MSM-enhanced: No MSM in 24-hour pre-treatment, w/MSM enhancer

increase on the diffusion rate ([1]; 27 mg MSM/ml): 25%
permeation increase over control ([1]; 200 mg MSM/mL): approximately 50%
solubility ([2]; MSM concentration 250 mg/mL): 45 mg/100 mL
solubility change ([2]; MSM concentration of 30 mg/mL): not significantly increased
solubility ([2]; MSM solution, aqueous with cosolvent or surfactant or cyclodextrin, MSM 30 mg/ml, read-out: Solubility of Dexamethasone): 160 µg/mL (≈ 408 µM)
solubility ([2]; MSM solution, aqueous with cosolvent or surfactant or cyclodextrin, MSM 50 mg/ml, read-out: Solubility of Dexamethasone): 175 µg/mL (≈ 446 µM)
solubility ([2]; MSM solution, aqueous with cosolvent or surfactant or cyclodextrin, MSM 100 mg/ml, read-out: Solubility of Dexamethasone): 190 µg/mL (≈ 484 µM)
solubility ([2]; MSM solution, aqueous with cosolvent or surfactant or cyclodextrin, MSM 150 mg/ml, read-out: Solubility of Dexamethasone): 270 µg/mL (≈ 688 µM)
solubility ([2]; MSM solution, aqueous with cosolvent or surfactant or cyclodextrin, MSM 200 mg/ml, read-out: Solubility of Dexamethasone): 340 µg/mL (≈ 866 µM)
solubility ([2]; MSM solution, aqueous with cosolvent or surfactant or cyclodextrin, MSM 250 mg/ml, read-out: Solubility of Dexamethasone): 450 µg/mL (≈ 1150 µM)
water solubility ([2]; room temperature, no MSM): 10 mg/100 mL
Compound: C[C@@H]1C[C@H]2[C@@H]3CCC4=CC(=O)C=C[C@]4(C)[C@@]3(F)[C@@H](O)C[C@]2(C)[C@@]1(O)C(=O)CO [dexamethasone]

increase in amount in the aqueous humor in the presence of MSM [3]: approximately 5 fold
Compound: O=C([O-])CN(CC(=O)[O-])[14CH2][14CH2]N(CC(=O)[O-])CC(=O)[O-].[Na+].[Na+].[Na+].[Na+] [^14C-EDTA, Ethylenediamine tetraacetic acid-1,2-^14C tetrasodium]

enhancement factor of cumulative permeation when MSM is present in the donor solution ([4]; MSM 27 mg/mL versus control): ~2
Absorbance at 668 nm of receptor medium (methylene blue permeation) ([4]; Time 0.55 Hr, Control: no MSM): 0.021
Absorbance at 668 nm of receptor medium (methylene blue permeation) ([4]; Time 0.55 Hr, MSM 27 mg/mL in donor): 0.023
Absorbance at 668 nm of receptor medium (methylene blue permeation) ([4]; Time 1.9 Hr, Control: no MSM): 0.061
Absorbance at 668 nm of receptor medium (methylene blue permeation) ([4]; Time 1.9 Hr, MSM 27 mg/mL in donor): 0.176
Absorbance at 668 nm of receptor medium (methylene blue permeation) ([4]; Time 2.9 Hr, Control: no MSM): 0.162
Absorbance at 668 nm of receptor medium (methylene blue permeation) ([4]; Time 2.9 Hr, MSM 27 mg/mL in donor): 0.323
Absorbance at 668 nm of receptor medium (methylene blue permeation) ([4]; Time 4 Hr, Control: no MSM): 0.234
Absorbance at 668 nm of receptor medium (methylene blue permeation) ([4]; Time 4 Hr, MSM 27 mg/mL in donor): 0.433
Absorbance at 668 nm of receptor medium (methylene blue permeation) ([4]; Time 5.7 Hr, Control: no MSM): 0.283
Absorbance at 668 nm of receptor medium (methylene blue permeation) ([4]; Time 5.7 Hr, MSM 27 mg/mL in donor): 0.563
Absorbance at 668 nm of receptor medium (methylene blue permeation) ([4]; Time 6.9 Hr, Control: no MSM): 0.408
Absorbance at 668 nm of receptor medium (methylene blue permeation) ([4]; Time 6.9 Hr, MSM 27 mg/mL in donor): 0.738
enhancement factor of cumulative permeation when MSM is present in the donor solution ([5]; MSM 27 mg/mL versus control): > 3
lag time ([5]; MSM present in the donor solution): less than 12 hours
Absorbance @ 668 nm of receptor medium (methylene blue permeation) ([5]; Time 43.5 Hr, Control: no MSM): 0.024
Absorbance @ 668 nm of receptor medium (methylene blue permeation) ([5]; Time 43.5 Hr, MSM 27 mg/mL in donor): 0.093
Absorbance @ 668 nm of receptor medium (methylene blue permeation) ([5]; Time 52.75 Hr, Control: no MSM): 0.03
Absorbance @ 668 nm of receptor medium (methylene blue permeation) ([5]; Time 52.75 Hr, MSM 27 mg/mL in donor): 0.13
Absorbance @ 668 nm of receptor medium (methylene blue permeation) ([5]; Time 65 Hr, Control: no MSM): 0.035
Absorbance @ 668 nm of receptor medium (methylene blue permeation) ([5]; Time 65 Hr, MSM 27 mg/mL in donor): 0.163
Absorbance @ 668 nm of receptor medium (methylene blue permeation) ([5]; Time 75.5 Hr, Control: no MSM): 0.042
Absorbance @ 668 nm of receptor medium (methylene blue permeation) ([5]; Time 75.5 Hr, MSM 27 mg/mL in donor): 0.195
Absorbance @ 668 nm of receptor medium (methylene blue permeation) ([5]; Time 89 Hr, Control: no MSM): 0.057
Absorbance @ 668 nm of receptor medium (methylene blue permeation) ([5]; Time 89 Hr, MSM 27 mg/mL in donor): 0.213
Absorbance @ 668 nm of receptor medium (methylene blue permeation) ([5]; Time 97.5 Hr, Control: no MSM): 0.076
Absorbance @ 668 nm of receptor medium (methylene blue permeation) ([5]; Time 97.5 Hr, MSM 27 mg/mL in donor): 0.265
lag time ([5]; without MSM): about 24 hours
permeation rate of enhanced solution relative to control ([6]; MSM 50 mg/mL in donor): approximately 2 times
permeation through MSM-pretreated membrane versus control ([6]; MSM pretreatment, brief rinsing, no MSM in donor): slightly higher
Absorbance @ 668 nm of receptor medium (methylene blue permeation) ([6]; Time 0.27, Control: no MSM pre-treatment, no MSM enhancer): 0.01
Absorbance @ 668 nm of receptor medium (methylene blue permeation) ([6]; Time 0.27, Test A: MSM pretreatment w/thorough washing, no MSM enhancer): 0.01
Absorbance @ 668 nm of receptor medium (methylene blue permeation) ([6]; Time 0.27, Test B: MSM pretreatment w/brief rinsing, no MSM enhancer): 0.019
Absorbance @ 668 nm of receptor medium (methylene blue permeation) ([6]; Time 0.50, Control: no MSM pre-treatment, no MSM enhancer): 0.025
Absorbance @ 668 nm of receptor medium (methylene blue permeation) ([6]; Time 0.50, MSM-enhanced: no pre-treatment, MSM 50 mg/mL in donor): 0.06
Absorbance @ 668 nm of receptor medium (methylene blue permeation) ([6]; Time 0.50, Test A: MSM pretreatment w/thorough washing, no MSM enhancer): 0.031
Absorbance @ 668 nm of receptor medium (methylene blue permeation) ([6]; Time 0.50, Test B: MSM pretreatment w/brief rinsing, no MSM enhancer): 0.041
Absorbance @ 668 nm of receptor medium (methylene blue permeation) ([6]; Time 0.75, Control: no MSM pre-treatment, no MSM enhancer): 0.037
Absorbance @ 668 nm of receptor medium (methylene blue permeation) ([6]; Time 0.75, Test A: MSM pretreatment w/thorough washing, no MSM enhancer): 0.043
Absorbance @ 668 nm of receptor medium (methylene blue permeation) ([6]; Time 0.75, Test B: MSM pretreatment w/brief rinsing, no MSM enhancer): 0.055
Absorbance @ 668 nm of receptor medium (methylene blue permeation) ([6]; Time 1.00, Control: no MSM pre-treatment, no MSM enhancer): 0.052
Absorbance @ 668 nm of receptor medium (methylene blue permeation) ([6]; Time 1.00, MSM-enhanced: no pre-treatment, MSM 50 mg/mL in donor): 0.13
Absorbance @ 668 nm of receptor medium (methylene blue permeation) ([6]; Time 1.00, Test A: MSM pretreatment w/thorough washing, no MSM enhancer): 0.064
Absorbance @ 668 nm of receptor medium (methylene blue permeation) ([6]; Time 1.00, Test B: MSM pretreatment w/brief rinsing, no MSM enhancer): 0.079
Absorbance @ 668 nm of receptor medium (methylene blue permeation) ([6]; Time 1.50, Control: no MSM pre-treatment, no MSM enhancer): 0.078
Absorbance @ 668 nm of receptor medium (methylene blue permeation) ([6]; Time 1.50, MSM-enhanced: no pre-treatment, MSM 50 mg/mL in donor): 0.204
Absorbance @ 668 nm of receptor medium (methylene blue permeation) ([6]; Time 1.50, Test A: MSM pretreatment w/thorough washing, no MSM enhancer): 0.089
Absorbance @ 668 nm of receptor medium (methylene blue permeation) ([6]; Time 1.50, Test B: MSM pretreatment w/brief rinsing, no MSM enhancer): 0.118
Absorbance @ 668 nm of receptor medium (methylene blue permeation) ([6]; Time 2.00, Control: no MSM pre-treatment, no MSM enhancer): 0.114
Absorbance @ 668 nm of receptor medium (methylene blue permeation) ([6]; Time 2.00, MSM-enhanced: no pre-treatment, MSM 50 mg/mL in donor): 0.281
Absorbance @ 668 nm of receptor medium (methylene blue permeation) ([6]; Time 2.00, Test A: MSM pretreatment w/thorough washing, no MSM enhancer): 0.125
Absorbance @ 668 nm of receptor medium (methylene blue permeation) ([6]; Time 2.00, Test B: MSM pretreatment w/brief rinsing, no MSM enhancer): 0.16
Absorbance @ 668 nm of receptor medium (methylene blue permeation) ([6]; Time 24.00, Control: no MSM pre-treatment, no MSM enhancer): 0.92
Absorbance @ 668 nm of receptor medium (methylene blue permeation) ([6]; Time 24.00, MSM-enhanced: no pre-treatment, MSM 50 mg/mL in donor): 1.393
Absorbance @ 668 nm of receptor medium (methylene blue permeation) ([6]; Time 24.00, Test A: MSM pretreatment w/thorough washing, no MSM enhancer): 0.939
Absorbance @ 668 nm of receptor medium (methylene blue permeation) ([6]; Time 24.00, Test B: MSM pretreatment w/brief rinsing, no MSM enhancer): 1.112
Compound: CN(C)c1ccc2nc3ccc(=[N+](C)C)cc-3sc2c1 [methylene blue]
remaining enhancement after thorough washing of MSM-pretreated membrane ([6]; MSM pretreatment, thorough washing, no MSM in donor): no detectable remaining enhancement effect
